Measured values as given in US7026318B2 (Shionogi & Co., Ltd., priority 2000, dated 2006).

Assays:
[1] = target: human type I enzyme (sPLA2) (Homo sapiens, UniProt P04054); experiment: Inhibition test of human secretory phospholipase A2, chromogenic assay, type I enzyme; format: biochemical; settings: recombinant human sPLA2 type I, chromogenic assay, 30 min; read-out: IC50 type I
[2] = target: T1, human type II enzyme (sPLA2) (Homo sapiens, UniProt P14555); experiment: Inhibition test of human secretory phospholipase A2, chromogenic assay, type II enzyme; format: biochemical; settings: human sPLA2 type II, chromogenic assay, 30 min; read-out: IC50 type II
T1 sequence (P14555 21-144): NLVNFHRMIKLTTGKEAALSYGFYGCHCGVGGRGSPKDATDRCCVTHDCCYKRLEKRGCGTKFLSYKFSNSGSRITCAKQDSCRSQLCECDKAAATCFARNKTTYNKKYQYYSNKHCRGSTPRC

human type V sPLA2 = target: T2, human type V sPLA2 (Homo sapiens, UniProt P39877); experiment: Inhibition test of human secretory phospholipase A2, chromogenic assay, type V enzyme; format: biochemical; settings: human sPLA2 type V (CHO supernatant), chromogenic assay, 45 min; read-out: IC50 type V
T2 construct: made in house; unpurified culture supernatant
T2 sequence (P39877 21-138): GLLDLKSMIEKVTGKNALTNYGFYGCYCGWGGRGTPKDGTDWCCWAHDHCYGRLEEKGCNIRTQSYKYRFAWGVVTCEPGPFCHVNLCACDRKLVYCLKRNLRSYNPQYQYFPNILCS

human type X sPLA2 [3] = target: T3, human type X sPLA2 (Homo sapiens, UniProt O15496); experiment: Inhibition test of human secretory phospholipase A2, chromogenic assay, type X enzyme; format: biochemical
T3 construct: made in house; unpurified culture supernatant
T3 sequence (O15496 43-165): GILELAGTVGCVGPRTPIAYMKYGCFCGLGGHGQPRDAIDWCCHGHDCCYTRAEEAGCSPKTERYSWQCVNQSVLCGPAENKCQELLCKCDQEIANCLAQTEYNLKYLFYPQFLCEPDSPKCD

human type X sPLA2 [4] = target: T3, human type X sPLA2; experiment: Human type X sPLA2-induced oleic acid release in human colon carcinoma HT-29 cells; format: cell-based; settings: compound 10 μM, 100 nM human type X sPLA2, 30 min, percentage of the increase by type X sPLA2 (no treatment group = 100)
Method: Examination 15: Effects of sPLA2 Inhibitors on Human Type X sPLA2-Induced Oleic Acid Release in Human Colon Calcinoma Cell Lines, HT-29 Cells.
Human colon calcinoma cell lines, HT-29 cells (obtained from ATCC) were cultured in DMEM supplemented with 10% fetal calf serum. The cells were washed by phosphate-buffered saline (PBS), detached from culture plates by treatment with trypsin/EDTA solution and further washed by PBS. The resulting cells were resuspended in Hanks' buffered saline containing 0.1% bovine serum albumin (BSA) at a density of 12.5×10^6 cells/mL. Aliquots of the cell suspension (0.4 ml) were transferred into polypropylene tubes and test compounds dissolved in DMSO solution (final concentration; 10 μM) were added. After preincubation for 10 min at 37° C., 100 nM purified human type X sPLA2 enzyme (Hanasaki et al J. Biol. Chem. (1999) 274, 34203–34211) was added (final volume of 0.5 mL). After incubation for 30 min at 37° C., the reaction was stopped by the addition of 2 ml Dole's reagent (heptane:2-propanol:1M H2SO4=10:40:1, v/v/v).

human type X sPLA2 [5] = target: T3, human type X sPLA2; experiment: Type X sPLA2-induced PGE2 production in human colon carcinoma HT-29 cells; format: cell-based; settings: compound 10 μM; TNF-α-treated HT-29 cells; 100 nM human type X sPLA2, 3 h; percentage of PGE2 produced by type X sPLA2 (no treatment group = 100)
Method: Examination 16: Effects of sPLA2 Inhibitors on Type X sPLA2-Induced PGE2 Production in Human Colon Carcinoma Cell Lines, HT-29 Cells.
HT-29 cells were seeded into 24-well plates at a density of 2.5×10^5 cells/well. After incubation for 24 h, the cells were washed three times with PBS and incubated with 30 ng/mL of recombinant human tumor necrosis factor-α (R&D Systems, Inc.) in DMEM medium supplemented with 10% fetal bovine serum for 18 h at 37° C. After washing with PBS, the cells were preincubated with or without test compounds (at a final concentration of 10 μM; dissolved in DMSO) in Hanks' buffered saline containing 0.1% BSA for 10 min at 37° C., and then stimulated with 100 nM purified human type X sPLA2 enzyme in a final volume of 0.5 mL. After incubation for 3 h at 37° C, the culture supernatant was collected following the centrifugation for the removal of floating cells, and its PGE2 content was quantified with an enzyme-immunoassay kit (Cayman Chemicals Co.). From each data, the value in the absence of type X sPLA2 was subtracted. The amount of PGE2 in the presence of each test compound was expressed as the percentage of the PGE2 content produced by the addition of type X sPLA2 enzyme.

human type X sPLA2 [6] = target: T3, human type X sPLA2; experiment: Type X sPLA2-induced fatty acid release from isolated human lipoproteins (LDL); format: biochemical; settings: compound 10 μM; human LDL 0.5 mg/mL; 10 nmol/L human type X sPLA2, 4 hr at 37° C.; read-out: % of Inhibition (10 μM)
Method: Examination 17: Effects of sPLA2 Inhibitors on Type X sPLA2-Induced Fatty Acid Release From Isolated Human Lipoproteins.
LDL was isolated from human plasma by sequential ultracentrifugation method (Havel et al. J. Clin. Invest. 34,1345–1353 (1955)). LDL (0.5 mg/mL) was incubated with 10 nmol/L of human type X sPLA2 in the assay mixture containing 12.5 mmol/L Tris-HCl buffer (pH 8.0), 125 mg/L bovine serum albumin and 1 mmol/L calcium chloride for 4 hr at 37° C. Fatty acids released from lipoprotein were extracted by Dole's method (Dole et al. J. Biol. Chem. 235, 2595–2599 (1960)), labeled with 9-anthryldiazomethane according to a known method (Hanasaki et al., J. Biol. Chem. 274, 34203–34211 (1999)) and measured by detecting the fluorescence of labeled fatty acids using reverse-phase high performance chromatography (LiChroCART 125-4 Superspher 100 RP-18 column (Merck). For the inhibition assay of drugs, sPLA2 inhibitors (final concentration of 10 μM) were added at almost the same time as the addition of sPLA2 into the reaction solution. The results are presented in Table 10.

human type I enzyme (sPLA2), sequence (P04054 23-148): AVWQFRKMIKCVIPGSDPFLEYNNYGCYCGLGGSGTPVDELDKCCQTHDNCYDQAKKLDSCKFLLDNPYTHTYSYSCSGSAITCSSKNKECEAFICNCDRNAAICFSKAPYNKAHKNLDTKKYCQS

CC(C)Cc1c(C(=O)C(N)=O)c2c(OCC(=O)O)cccc2n1Cc1ccccc1 [Compound I-10]
IC50 [1]: > 700 nM
IC50 [2]: > 1000 nM
IC50 (human type V sPLA2): > 1000 nM
IC50 (human type X sPLA2 [3]): 13 nM
Oleic acid release (human type X sPLA2 [4]): −0.2 ± 5.7 %
PGE2 production (human type X sPLA2 [5]): −12.7 ± 7.9 %
inhibition at 10 µM (human type X sPLA2 [6]): 91.3%
